Reference: patent publication US9127016B2, “Small molecule inhibitors of Dusp6 and uses therefor” (University of Pittsburgh—Of the Commonwealth System of …, priority 2009, dated 2015)

Assays:
Dusp6 = molecular target: T1, Dusp6 (Danio rerio, UniProt Q7T2L8); experiment: Zebrafish mRNA microinjection, rescue of sef expression, dusp6; type: in vivo; details: 5 μM BCI, shield stage
T1 construct: expressed in transfected cells; host or cells: zebrafish embryos, 500 pg mRNA injected at the 1-2 cell stage
T1 sequence (Q7T2L8 1-382): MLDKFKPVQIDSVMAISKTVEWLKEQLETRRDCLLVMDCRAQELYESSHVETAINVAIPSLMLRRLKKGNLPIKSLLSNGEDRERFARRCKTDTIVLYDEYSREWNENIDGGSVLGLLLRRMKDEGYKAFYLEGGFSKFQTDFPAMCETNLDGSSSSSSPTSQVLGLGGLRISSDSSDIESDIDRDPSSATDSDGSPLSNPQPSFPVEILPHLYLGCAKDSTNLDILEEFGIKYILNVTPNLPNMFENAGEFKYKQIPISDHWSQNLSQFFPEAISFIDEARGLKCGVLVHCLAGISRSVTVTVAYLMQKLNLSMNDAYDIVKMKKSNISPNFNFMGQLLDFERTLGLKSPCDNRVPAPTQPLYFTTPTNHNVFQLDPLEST
Description: dusp6 and XFD mRNA for microinjection studies were generated as previously described (Tsang, M. et al. Development 131, 2769-79 (2004)). Both Dusp5 and Spry4 ORFs were amplified by RT-PCR from 24 hpf zebrafish with the following primers: […]
Amplified PCR products were subcloned into pCS2+, sequenced verified and mRNAs were synthesized as described previously. Embryos were injected with 500 pg mRNA at the 1-2 cell stage, treated with 5 μM BCI at the 1000-cell stage and fixed at shield stage for in situ hybridization.
In situ hybridization experiments were carried out as described previously (Kudoh, T. et al. Genome Res 11, 1979-87 (2001)). The probes eng3, krox20, sef, dusp6, gata4, nkx2.5, cmlc2, vmhc, scl, etsrp and hand2 were generated with a RNA labeling kit (Roche) (Tsang, M. et al. Development 131, 2769-79 (2004); Chen, J. N. et al. Development 122, 3809-16 (1996); Ekker, M., et al. Development 116, 1001-10 (1992); Liao, E. C. et al. Genes Dev 12, 621-6 (1998); Oxtoby, E. et al. Nucleic Acids Res 21, 1087-95 (1993); Pham, V. N. et al. Dev Biol 303, 772-83 (2007); Tsang, M., et al. Nat Cell Biol 4, 165-9 (2002); Yelon, D., et al. Dev Biol 214, 23-37 (1999); and Yelon, D. et al. Development 127, 2573-82 (2000)). The double fluorescent in situ hybridization protocol was described by Schoenbeck et al. (Dev Cell 13, 254-67 (2007)). […]

zebrafish embryo = experiment: Zebrafish embryo survival after prolonged exposure; type: in vivo
Description: We next addressed if BCI and related analogs are detrimental to zebrafish embryo survival after prolong exposure. […] The percentage of embryos that died after 24 hours treatment was 100% at 20 μM.

[1] = system: cardiac progenitors / heart size; experiment: Cardiac progenitor and heart size analysis in treated embryos; type: in vivo, zebrafish
Description: In situ hybridization experiments were carried out as described previously (Kudoh, T. et al. Genome Res 11, 1979-87 (2001)). The probes eng3, krox20, sef, dusp6, gata4, nkx2.5, cmlc2, vmhc, scl, etsrp and hand2 were generated with a RNA labeling kit (Roche) (Tsang, M. et al. Development 131, 2769-79 (2004); Chen, J. N. et al. Development 122, 3809-16 (1996); Ekker, M., et al. Development 116, 1001-10 (1992); Liao, E. C. et al. Genes Dev 12, 621-6 (1998); Oxtoby, E. et al. Nucleic Acids Res 21, 1087-95 (1993); Pham, V. N. et al. Dev Biol 303, 772-83 (2007); Tsang, M., et al. Nat Cell Biol 4, 165-9 (2002); Yelon, D., et al. Dev Biol 214, 23-37 (1999); and Yelon, D. et al. Development 127, 2573-82 (2000)). The double fluorescent in situ hybridization protocol was described by Schoenbeck et al. (Dev Cell 13, 254-67 (2007)). Fluorescent in situ hybridizations were visualized by confocal microscopy. Single optical sections and z-series of flat-mounted stained embryos were collected with a confocal laser scan head (SP5, Leica Microsystems, Inc.) mounted on an inverted compound microscope (DM16000, Leica Microsystems, Inc.). Images were scanned and compiled with NIH ImageJ software (rsb.info.nih.gov/ij/).
The identification of a small molecule that blocks the biologically relevant activity of Dusp6 and Dusp1 allowed us to probe the requirement for these enzymes in later developmental processes. Given that BCI could potentially block related members of the Dusp family, we examined the expression of other dusps in zebrafish. Detailed expression analyses of several dusps have been described and include dusp4, dusp1, dusp7, dusp5, and dusp22a (Qian, F. et al. Dev Dyn 233, 1163-72 (2005); Sumanas, S., et al. Blood 106, 534-41 (2005); Brown, J. L. et al. Proc Natl Acad Sci USA 105, 12337-42 (2008); Kudoh, T. et al. Genome Res 11, 1979-87 (2001); and Thisse, B. et al. Fast Release Clones: A High Throughput Expression Analysis. ZFIN Direct Data Submission (zfin.org) (2004)). Of these only Dusp6 functions as a feedback regulator of FGF/MAPK/ERK signaling and is expressed within the anterior lateral plate mesoderm, supporting the idea that this phosphatase plays a role in heart development. In early embryogenesis, Dusp6 is an important regulator of FGF signaling; knock-down with antisense morpholinos results in embryo polarity defects, which precludes the study of Dusp6′s role in later development (Tsang, M. et al. Development 131, 2769-79 (2004)). In contrast, small molecules permit the analysis at later stages of development due to rapid and transient perturbation of their biological targets. Using BCI as a chemical probe, we asked how inhibiting Dusp6 activity would alter patterning and formation of the heart. The zebrafish heart develops from a small group of cardiac progenitor cells that can be identified by 5 hpf within the mesodermal layer of the blastula stage embryo. During gastrulation, cardiac progenitor cells undergo cellular migration to form two bilateral populations known as the anterior lateral plate mesoderm (ALPM) located just behind the MHB, and begin to express the transcription factors nkx2.5 and gata4. Studies have described a role for Fgf8 in zebrafish heart development. In embryos harboring an fgf8 mutation, both atria and ventricular cells are reduced (Marques, S. R., et al. Dev Biol 321, 397-406 (2008) and Reifers, F., et al. Development 127, 225-35 (2000)). In agreement with the notion that FGF signaling plays a role in stipulating heart size, ectopic expression of a constitutively activated FGF receptor (Fgfrl) during somitogenesis stages expanded cardiac tissue (Marques, S. R., et al. Dev Biol 321, 397-406 (2008)). Therefore we used BCI to test if Dusp6 limits FGF signaling and restricts cardiac progenitors and heart organ size. In BCI-treated embryos a caudal expansion of gata4 in the ALPM was observed (compare FIG. 14a & a′ to 14b & b′; 81%, n=16). […]

## O=C1/C(=C/c2ccccc2)C(NC2CCCCC2)c2ccccc21 (stereo not drawn) [Compound 3, (E)-2-benzylidene-3-(cyclohexylamino)-2,3-dihydro-1H-inden-1-one]
Dusp6
  sef expression in dusp6-injected embryos: rescued sef expression to control levels or higher
Zebrafish embryo; 20 μM, 24 hours
  percentage of embryos that died after 24 hours treatment: 100%
Zebrafish embryo; high doses (>10 μM) for 24 hours
  effect of prolonged exposure on embryos: embryo defects, such as tail necrosis and even death
[1]; 10-somite stage, n=19
  embryos with expansion of cardiac hand2 expression: 32%
[1]; 18-somite stage, n=16
  embryos with increase in cmlc2 positive cells: 81%
[1]; n=11
  embryos with expanded nkx2.5 cardiac progenitor pools: 91%
[1]; n=16, 10-somite stage
  embryos with caudal expansion of gata4 in the ALPM: 81%
[1]; treated at 40% epiboly, washout next day, 56 hpf
  cardiac tissue in larvae: marked expansion in cardiac tissue
[1]; treated from the 1-somite stage, n=15
  embryos with marked reduction in scl expression: 93%
